From US12268674B2, “Mi-2β inhibitor as an immunotherapy agent” (BioVentures, LLC, priority 2021, dated 2025)

Tests used:
[1] = target: T1, LONP1 (Homo sapiens, UniProt P36776); experiment: ATPase profile (ATP acyl phosphate probe); type: binding; conditions: LONP1, SEQ ID NO: 115, labeling site Other
T1 construct: to get the native cell lysate; endogenous in cells; host or cells: A375

[2] = target: T2, AK3 (Homo sapiens, UniProt Q9UIJ7); experiment: ATPase profile (ATP acyl phosphate probe); type: binding; conditions: AK3, SEQ ID NO: 34, ATP BS
T2 construct: to get the native cell lysate; host or cells: A375 cell lysate

[3] = target: T3, LIG1 (Homo sapiens, UniProt P18858); experiment: ATPase profile (ATP acyl phosphate probe); type: binding; conditions: LIG1, SEQ ID NO: 114, ATP BS
T3 construct: to get the native cell lysate; endogenous in cells; host or cells: A375

[4] = target: T4, CCT2 (Homo sapiens, UniProt P78371); experiment: ATPase profile (ATP acyl phosphate probe); type: binding; conditions: CCT2, SEQ ID NO: 51, ATP BS
T4 construct: to get the native cell lysate; host or cells: A375 cell lysate

[5] = target: T5, PEX1 (Homo sapiens, UniProt O43933); experiment: ATPase profile (ATP acyl phosphate probe); type: binding; conditions: PEX1, SEQ ID NO: 156, ATP BS
T5 construct: to get the native cell lysate; endogenous in cells; host or cells: A375 cell lysate

[6] = target: T6, HYOU1 (Homo sapiens, UniProt Q9Y4L1); experiment: ATPase profile (ATP acyl phosphate probe); type: binding
T6 construct: to get the native cell lysate; endogenous in cells; host or cells: A375

[7] = target: T7, PGK1 (Homo sapiens, UniProt P00558); experiment: ATPase profile (ATP acyl phosphate probe); type: binding; conditions: PGK1, SEQ ID NO: 160, ATP BS
T7 construct: to get the native cell lysate; endogenous in cells; host or cells: A375 cell lysate

[8] = target: T8, MTHFD1 (Homo sapiens, UniProt P11586); experiment: ATPase profile (ATP acyl phosphate probe); type: binding; conditions: MTHFD1, SEQ ID NO: 125, ATP BS
T8 construct: to get the native cell lysate; endogenous in cells; host or cells: A375

[9] = target: T9, RBKS (Homo sapiens, UniProt Q9H477); experiment: ATPase profile (ATP acyl phosphate probe); type: binding; conditions: SEQ ID NO: 182, ATP BS
T9 construct: to get the native cell lysate; endogenous in cells; host or cells: A375 cell lysate

[10] = target: T10, XRCC6 (Homo sapiens, UniProt P12956); experiment: ATPase profile (ATP acyl phosphate probe); type: binding; conditions: XRCC6, SEQ ID NO: 232, ATP BS
T10 construct: to get the native cell lysate; endogenous in cells; host or cells: A375 cell lysate

[11] = target: T11, TRMU (Homo sapiens, UniProt O75648); experiment: ATPase profile (ATP acyl phosphate probe); type: binding
T11 construct: to get the native cell lysate; endogenous in cells; host or cells: A375 cell lysate

[12] = target: T12, DYNC1H1 (Homo sapiens, UniProt Q14204); experiment: ATPase profile (ATP acyl phosphate probe); type: binding
T12 construct: endogenous in cells; host or cells: A375 cell lysate

[13] = test system: B16F10 melanoma graft; experiment: Syngeneic melanoma graft mouse model
Method: To test Z36-MP5 function in syngeneic mouse model, B16F10 cells (1.5×105) were mixed with BD matrigel (Matrix Growth Factor Reduced) (BD, 354230) in 100 μl PBS, and then mouse subcutaneous injection and tumor graft monitor were performed as described above. Except that vehicle [5% (w/v) Kolliphor HS 15 (Sigma)] in normal saline or formulated 30 mg/kg Z36-MP5 was administered with i.p. injection once a day starting at day 6, together with i.p. injection of control IgG antibodies (10 mg/kg) or anti-PD-1 (RMP1-14, BioXCell, 10 mg/kg) on day 6, 9, 12, 15 and 18. The mice were euthanized after indicated days or when the allowable endpoint size (1 cm^3) was reached.
Tumors were minced with scissors, and then digested with the digestion buffer (RPMI 1640 medium, 5% FBS, 1% penicillin-streptomycin, 25 mM HEPES, and 300 U collagenase (Sigma C0130)) on a shaker at 37° C. for 2 hours. Single cells were prepared through a 70 m cell strainer. Erythrocytes were removed by incubation in red blood cell lysis buffer (R7757, Sigma) at room temperature for 5 min. The cells were prepared in PBS (with concentration of ˜2×10^7) for studies.
The single-cell suspension were fixed with 2% paraformaldehyde solution (J19943K2, Thermo Scientific). And then the cells were stained with the follow antibodies: anti-mouse CD45 APC (104, BD pharmingen, 561875), anti-mouse CD3e PE (145-2C11, BD pharmingen, 553063), anti-mouse CD4 FITC (RM4-5, BD pharmingen, 553046), anti-mouse CD4 PE/Cy7 (GK1.5, BioLegend, 100421), anti-mouse CD8 FITC (53-6.7, BD pharmingen, 553031), anti-mouse CD8a APC/Cy7 (53-6.7, BioLegend 100713), anti-mouse IFN-γ PE (XMG1.2, eBioscience, 12731181), anti-mouse CD69 PE (H1.2F3, Biolegend, 104508), anti-mouse CD25 Alexa Fluor 488 (PC61.5, eBioscience, 53025182), anti-mouse CD107a-V450 (1D4B, BD, 560648), anti-human/mouse granzyme B FITC (GB 11, BioLegend, 515403). The regulatory T cells in TILs were stained with the Mouse Regulatory T Cell Staining kit #1 (88-8111, ThermoFisher Scienctific), with antibodies of anti-mouse CD4 FITC (RM4-5), anti-mouse CD25 APC (PC61.5) anti-mouse Foxp3 PE (FJK-16s). BD LSRII was used for data acquisition and FlowJo was used for data analysis.

[14] = target: T13, ABCD4 (Homo sapiens, UniProt O14678); experiment: ATPase profile (ATP acyl phosphate probe); type: binding; conditions: ABCD4, SEQ ID NO: 14, ATP BS
T13 construct: to get the native cell lysate; host or cells: A375 cell lysate

[15] = target: T14, TRAP1 (Homo sapiens, UniProt Q12931); experiment: ATPase profile (ATP acyl phosphate probe); type: binding
T14 construct: to get the native cell lysate; endogenous in cells; host or cells: A375 cell lysate

[16] = Tolerability in C57BL/6 mice (body weight, H&E staining of tissues); type: in vivo; conditions: 30 mg/kg/day for 2 weeks
Excerpt: FIG. 11 illustrates In vitro assay for Mi-2β inhibitors. A, The inhibitory activity of Z36 for Mi-2β chromatin modulatory activity, measured as fold changes of Mi-2β activity treated with control vehicle. B, The inhibitory activity of Z36-MP5 with IC50 values against Mi-2β at different ATP concentrations. The curves from top to bottom: ATP 300 (μM), ATP 100 (μM), ATP 30 (μM), and ATP 10 (μM). C, The expression of Irf1, Cxc19 and Cxcl10 and Irf1 mRNA in B16F10 cells treated with Z36-MP5 as indicated concentration for 24 hours was determined with RT-qPCR assay. The four bars from left to right: vehicle control, Z36-MP5 5 μM, Z36-MP5 25 μM, and Z36-MP5 100 μM. D, Z36-MP5-treated (25 μM) GFP-labelled B16F10 cells were pretreated with 10 ng/ml of IFN-γ for 24 hours, before co-culture with activated Pmel-1 T cells at a ratio of 1:1 for three days. The fold changes of survival GFP-positive tumor cells were assayed with flow cytometry. Data presents as means±SD E, The body weight changes of C57BL/6J mice treated with Z36-MP5 (30 mg/kg/day) for 2 weeks. Data are mean±SEM (n=5). […]
Z36-MP5 was chosen for further validation and experimental therapeutics in vivo. […] To investigate its cellular inhibitory activity, B16-F10 cells were treated with Z36-MP5 at concentrations ranging from 5 to 100 μM, and the activation of Mi-2β target genes measured by RT-qPCR. […]

[17] = target: T15, HSPA5 (Homo sapiens, UniProt P11021); experiment: ATPase profile (ATP acyl phosphate probe); type: binding
T15 construct: to get the native cell lysate; endogenous in cells; host or cells: A375

[18] = target: T16, MCM4 (Homo sapiens, UniProt P33991); experiment: ATPase profile (ATP acyl phosphate probe); type: binding; conditions: MCM4, SEQ ID NO: 118, ATP BS; read-out: Inhibition (%) by 1 μM Z36-MP5
T16 construct: to get the native cell lysate; endogenous in cells; host or cells: A375

[19] = Z36-MP5 30 mg/kg combined with anti-PD-1 10 mg/kg, B16F10 graft

T15 sequence (P11021 19-654): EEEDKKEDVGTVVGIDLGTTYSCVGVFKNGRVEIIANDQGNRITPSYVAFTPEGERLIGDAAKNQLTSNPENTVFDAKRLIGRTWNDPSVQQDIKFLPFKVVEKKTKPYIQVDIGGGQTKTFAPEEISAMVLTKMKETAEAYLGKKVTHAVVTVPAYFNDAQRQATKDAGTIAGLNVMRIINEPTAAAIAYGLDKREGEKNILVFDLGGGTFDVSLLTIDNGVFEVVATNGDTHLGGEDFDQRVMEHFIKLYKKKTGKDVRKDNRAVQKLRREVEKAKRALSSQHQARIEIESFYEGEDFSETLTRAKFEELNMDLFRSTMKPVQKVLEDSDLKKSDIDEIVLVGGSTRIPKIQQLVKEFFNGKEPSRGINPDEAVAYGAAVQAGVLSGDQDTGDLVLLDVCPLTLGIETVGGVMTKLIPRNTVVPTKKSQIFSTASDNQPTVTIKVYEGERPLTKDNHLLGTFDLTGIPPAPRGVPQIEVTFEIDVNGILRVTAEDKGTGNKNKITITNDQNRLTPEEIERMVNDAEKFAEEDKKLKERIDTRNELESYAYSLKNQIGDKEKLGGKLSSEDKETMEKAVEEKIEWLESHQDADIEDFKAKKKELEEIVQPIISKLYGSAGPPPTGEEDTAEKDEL
T11 sequence (O75648 whole entry): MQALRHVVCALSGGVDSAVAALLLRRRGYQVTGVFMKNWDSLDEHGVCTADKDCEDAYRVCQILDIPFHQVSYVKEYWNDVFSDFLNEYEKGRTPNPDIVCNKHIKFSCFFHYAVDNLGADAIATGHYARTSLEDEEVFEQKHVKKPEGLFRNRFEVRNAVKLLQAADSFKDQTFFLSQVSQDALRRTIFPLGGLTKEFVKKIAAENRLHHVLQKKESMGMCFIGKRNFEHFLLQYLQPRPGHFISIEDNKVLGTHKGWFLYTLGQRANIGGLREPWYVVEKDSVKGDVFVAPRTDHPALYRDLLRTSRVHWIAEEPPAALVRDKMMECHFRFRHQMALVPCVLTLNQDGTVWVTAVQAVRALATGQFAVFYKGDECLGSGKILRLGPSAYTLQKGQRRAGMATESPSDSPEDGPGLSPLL
T6 sequence (Q9Y4L1 33-999): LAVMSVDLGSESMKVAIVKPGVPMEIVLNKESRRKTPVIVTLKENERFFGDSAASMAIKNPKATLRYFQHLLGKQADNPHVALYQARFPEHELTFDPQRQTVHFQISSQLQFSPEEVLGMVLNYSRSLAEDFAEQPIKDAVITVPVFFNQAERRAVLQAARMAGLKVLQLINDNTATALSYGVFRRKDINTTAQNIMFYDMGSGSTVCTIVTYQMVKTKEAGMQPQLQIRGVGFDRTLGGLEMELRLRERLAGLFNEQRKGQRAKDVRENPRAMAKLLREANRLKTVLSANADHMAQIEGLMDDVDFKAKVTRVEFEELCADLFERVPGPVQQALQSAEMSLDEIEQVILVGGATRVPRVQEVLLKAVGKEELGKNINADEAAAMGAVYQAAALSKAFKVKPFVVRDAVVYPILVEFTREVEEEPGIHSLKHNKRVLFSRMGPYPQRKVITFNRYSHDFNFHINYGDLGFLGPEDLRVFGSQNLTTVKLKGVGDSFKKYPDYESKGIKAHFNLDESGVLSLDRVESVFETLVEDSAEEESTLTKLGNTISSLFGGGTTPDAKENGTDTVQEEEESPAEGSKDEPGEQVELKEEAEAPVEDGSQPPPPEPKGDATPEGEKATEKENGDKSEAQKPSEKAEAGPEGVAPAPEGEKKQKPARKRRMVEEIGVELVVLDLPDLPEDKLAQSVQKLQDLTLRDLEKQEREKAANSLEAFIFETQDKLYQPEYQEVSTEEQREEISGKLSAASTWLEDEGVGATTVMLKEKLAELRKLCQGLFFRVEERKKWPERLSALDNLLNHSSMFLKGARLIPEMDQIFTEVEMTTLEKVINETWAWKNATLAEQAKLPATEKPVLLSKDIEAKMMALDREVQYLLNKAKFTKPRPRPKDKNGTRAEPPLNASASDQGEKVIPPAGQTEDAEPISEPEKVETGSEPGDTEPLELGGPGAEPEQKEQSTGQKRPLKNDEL
T14 sequence (Q12931 60-704): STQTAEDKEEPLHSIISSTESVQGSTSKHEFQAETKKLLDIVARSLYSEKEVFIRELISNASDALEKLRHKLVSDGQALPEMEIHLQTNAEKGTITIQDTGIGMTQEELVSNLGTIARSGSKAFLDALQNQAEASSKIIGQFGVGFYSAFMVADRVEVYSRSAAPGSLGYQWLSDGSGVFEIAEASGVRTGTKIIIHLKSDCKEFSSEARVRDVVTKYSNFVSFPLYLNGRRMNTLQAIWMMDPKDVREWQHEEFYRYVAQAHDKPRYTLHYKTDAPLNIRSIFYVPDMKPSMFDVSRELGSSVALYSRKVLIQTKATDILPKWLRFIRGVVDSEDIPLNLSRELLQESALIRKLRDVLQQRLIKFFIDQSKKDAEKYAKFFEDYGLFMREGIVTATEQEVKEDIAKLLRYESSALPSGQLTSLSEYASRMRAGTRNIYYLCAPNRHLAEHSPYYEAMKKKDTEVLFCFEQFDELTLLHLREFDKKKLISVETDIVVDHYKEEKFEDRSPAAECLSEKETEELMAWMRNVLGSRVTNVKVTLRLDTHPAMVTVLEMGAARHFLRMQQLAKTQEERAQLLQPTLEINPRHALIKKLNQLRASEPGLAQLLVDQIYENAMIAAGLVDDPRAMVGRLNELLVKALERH
T5 sequence (O43933 whole entry): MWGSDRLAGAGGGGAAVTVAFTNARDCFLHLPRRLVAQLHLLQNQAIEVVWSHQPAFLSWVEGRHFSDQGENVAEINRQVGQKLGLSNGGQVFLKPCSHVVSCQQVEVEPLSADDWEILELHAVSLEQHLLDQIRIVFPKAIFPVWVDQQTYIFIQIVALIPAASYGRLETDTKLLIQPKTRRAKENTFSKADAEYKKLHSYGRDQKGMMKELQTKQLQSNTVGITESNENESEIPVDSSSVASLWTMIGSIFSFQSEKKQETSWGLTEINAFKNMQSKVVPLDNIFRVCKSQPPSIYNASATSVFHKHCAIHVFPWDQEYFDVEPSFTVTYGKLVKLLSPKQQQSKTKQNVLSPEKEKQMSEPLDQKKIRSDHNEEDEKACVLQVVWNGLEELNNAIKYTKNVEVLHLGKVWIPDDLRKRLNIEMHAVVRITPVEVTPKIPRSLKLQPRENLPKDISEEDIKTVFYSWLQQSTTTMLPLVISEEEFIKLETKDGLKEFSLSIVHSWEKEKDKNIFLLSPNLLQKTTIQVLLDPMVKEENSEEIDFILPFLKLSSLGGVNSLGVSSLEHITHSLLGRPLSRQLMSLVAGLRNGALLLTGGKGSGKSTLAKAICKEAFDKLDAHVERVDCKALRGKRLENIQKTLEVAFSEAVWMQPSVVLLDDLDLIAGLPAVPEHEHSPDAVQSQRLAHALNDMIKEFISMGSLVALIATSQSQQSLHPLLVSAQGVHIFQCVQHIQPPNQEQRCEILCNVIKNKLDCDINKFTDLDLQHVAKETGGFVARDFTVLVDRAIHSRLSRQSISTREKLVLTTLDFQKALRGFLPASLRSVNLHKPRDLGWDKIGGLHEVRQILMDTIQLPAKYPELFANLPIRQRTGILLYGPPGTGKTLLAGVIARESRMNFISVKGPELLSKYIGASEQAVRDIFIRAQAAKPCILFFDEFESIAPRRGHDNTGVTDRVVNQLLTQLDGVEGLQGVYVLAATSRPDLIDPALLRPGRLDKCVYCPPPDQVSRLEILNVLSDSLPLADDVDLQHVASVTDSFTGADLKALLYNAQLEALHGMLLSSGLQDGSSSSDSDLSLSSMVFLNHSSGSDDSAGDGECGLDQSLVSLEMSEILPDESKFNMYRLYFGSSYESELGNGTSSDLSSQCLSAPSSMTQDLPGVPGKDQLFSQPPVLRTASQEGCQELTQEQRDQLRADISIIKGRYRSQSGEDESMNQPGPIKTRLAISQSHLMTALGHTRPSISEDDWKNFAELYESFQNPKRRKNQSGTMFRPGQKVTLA
T5 sequence (Q13608 whole entry partner): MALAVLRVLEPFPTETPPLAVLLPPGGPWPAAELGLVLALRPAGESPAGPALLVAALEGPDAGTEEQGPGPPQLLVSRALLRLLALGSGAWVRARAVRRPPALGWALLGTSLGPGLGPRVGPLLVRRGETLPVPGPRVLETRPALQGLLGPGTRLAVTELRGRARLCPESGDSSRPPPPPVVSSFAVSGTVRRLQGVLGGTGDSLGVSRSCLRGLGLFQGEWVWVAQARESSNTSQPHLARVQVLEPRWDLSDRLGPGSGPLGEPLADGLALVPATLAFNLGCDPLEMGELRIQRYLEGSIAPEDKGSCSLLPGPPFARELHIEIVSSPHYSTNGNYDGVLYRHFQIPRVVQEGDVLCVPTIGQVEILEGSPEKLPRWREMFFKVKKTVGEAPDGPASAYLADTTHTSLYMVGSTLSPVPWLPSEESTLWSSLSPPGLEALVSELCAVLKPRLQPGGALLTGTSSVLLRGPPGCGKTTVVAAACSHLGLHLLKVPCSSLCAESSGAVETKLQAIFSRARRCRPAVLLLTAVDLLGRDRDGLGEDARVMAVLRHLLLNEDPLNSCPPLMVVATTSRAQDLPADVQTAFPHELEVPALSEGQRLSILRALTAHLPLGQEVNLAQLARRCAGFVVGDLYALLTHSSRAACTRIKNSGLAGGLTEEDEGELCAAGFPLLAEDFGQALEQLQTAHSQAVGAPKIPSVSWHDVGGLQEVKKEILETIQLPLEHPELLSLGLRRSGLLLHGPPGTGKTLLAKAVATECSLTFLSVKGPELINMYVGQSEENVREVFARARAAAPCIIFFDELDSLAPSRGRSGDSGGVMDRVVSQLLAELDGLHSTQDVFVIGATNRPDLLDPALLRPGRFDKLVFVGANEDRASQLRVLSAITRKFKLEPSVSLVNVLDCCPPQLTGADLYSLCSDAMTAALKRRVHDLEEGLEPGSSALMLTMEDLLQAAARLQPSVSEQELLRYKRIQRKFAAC

With Cn1c(=O)[nH]c2ccc(-c3cccc(C(=O)NC4CCn5ccnc5C4)c3)cc21 (stereo not drawn) [Z36-MP5, 3-(3-methyl-2-oxo-2,3-dihydro-1H-benzo[d]imidazol-5-yl)-N-(5,6,7,8-tetrahydroimidazo[1,2-a]pyridin-7-yl)benzamide] the “Inhibition (%) by 1 μM Z36-MP5” value [1] was 1.81%, the “Inhibition (%) by 1 μM Z36-MP5” value [2] was 19.58% and the “Inhibition (%) by 1 μM Z36-MP5” value [3] was −7.76%. For the same compound, the “Inhibition (%) by 1 μM Z36-MP5” value [4] was −6.50%, the “Inhibition (%) by 1 μM Z36-MP5” value [5] was −4.27% and the “Inhibition (%) by 1 μM Z36-MP5” value ([6]; HYOU1, SEQ ID NO: 109, ATP BS) was −13.34%. For the same compound, the “Inhibition (%) by 1 μM Z36-MP5” value ([6]; HYOU1, SEQ ID NO: 110, ATP BS) was −6.78%, the “Inhibition (%) by 1 μM Z36-MP5” value [7] was −4.49% and the “Inhibition (%) by 1 μM Z36-MP5” value [8] was −6.16%. For the same compound, the “Inhibition (%) by 1 μM Z36-MP5” value [9] was −1.64%, the “Inhibition (%) by 1 μM Z36-MP5” value [10] was 10.61% and the “Inhibition (%) by 1 μM Z36-MP5” value ([11]; SEQ ID NO: 211, ATP BS) was −13.98%. The “Inhibition (%) by 1 μM Z36-MP5” value ([11]; SEQ ID NO: 212, ATP BS) was −2.57%, the “Inhibition (%) by 1 μM Z36-MP5” value ([12]; DYNC1H1, SEQ ID NO: 74, ATP BS) was −1.99% and the “Inhibition (%) by 1 μM Z36-MP5” value ([12]; DYNC1H1, SEQ ID NO: 75, ATP BS) was 0.38%. The mouse survival [13, 19] was “extended mouse survival”, the tumor growth [13, 19] was “substantial inhibition” and the “GZMB expression and activation markers CD69, IFN-γ, CD25 and CD107 in tumor-infiltrating CD8+ T cells” value ([13]; Z36-MP5 alone) was “upregulation”. The “CD8+ T cell TILs” value ([13]; Z36-MP5 alone, graft melanomas) was “moderate increase”, the “GZMB expression and activation markers CD69, IFN-γ, CD25 and CD107 in tumor-infiltrating CD8+ T cells” value ([13]; Z36-MP5 combined with anti-PD-1) was “augmented” and the “CD8+ T cell TILs” value ([13]; Z36-MP5 combined with anti-PD-1, graft melanomas) was “augmented”. The “population of CD4+ T cell and Treg cells” value ([13]; individual or combinational treatments, graft melanomas) was “not changed significantly”, the “tumor growth or mouse survival” value ([13]; treatment alone, B16F10 graft) was “did not impact” and the “Inhibition (%) by 1 μM Z36-MP5” value [14] was 11.24%. For the same compound, the “Inhibition (%) by 1 μM Z36-MP5” value ([15]; TRAP1, SEQ ID NO: 209, ATP BS) was −10.78%, the “Inhibition (%) by 1 μM Z36-MP5” value ([15]; TRAP1, SEQ ID NO: 210, ATP BS) was −11.57% and the “tolerability (mouse weight, organ tissue histological staining)” value [16] was “tolerated without significant toxicity”. For the same compound, the “Inhibition (%) by 1 μM Z36-MP5” value ([17]; HSPA5, SEQ ID NO: 104, ATP BS) was −16.08%, the “Inhibition (%) by 1 μM Z36-MP5” value ([17]; HSPA5, SEQ ID NO: 105, ATP BS) was −7.84% and the inhibition at 1 µM [18] was 4.98%.
